Test results reported in ChEMBL document CHEMBL1133786, “Synthesis and dopaminergic properties of the two enantiomers of 3-(3,4-dimethylphenyl)-1-propylpiperidine, a potent and selective dopamine D4 receptor ligand” (Bioorg Med Chem Lett, 2001).

What was measured:
[1] = Binding affinity for dopamine D2-D3 like receptor labelled with [3H]YM-09151-2 in striatum; assay type: tissue-based, Bos taurus
D(1A) dopamine receptor = D(1A) dopamine receptor (Bos taurus, UniProt Q95136); test: Binding affinity for dopamine D1-like receptor labelled with [3H]SCH-23390 in retina; assay type: tissue-based
D(1A) dopamine receptor, sequence (Q95136 whole entry): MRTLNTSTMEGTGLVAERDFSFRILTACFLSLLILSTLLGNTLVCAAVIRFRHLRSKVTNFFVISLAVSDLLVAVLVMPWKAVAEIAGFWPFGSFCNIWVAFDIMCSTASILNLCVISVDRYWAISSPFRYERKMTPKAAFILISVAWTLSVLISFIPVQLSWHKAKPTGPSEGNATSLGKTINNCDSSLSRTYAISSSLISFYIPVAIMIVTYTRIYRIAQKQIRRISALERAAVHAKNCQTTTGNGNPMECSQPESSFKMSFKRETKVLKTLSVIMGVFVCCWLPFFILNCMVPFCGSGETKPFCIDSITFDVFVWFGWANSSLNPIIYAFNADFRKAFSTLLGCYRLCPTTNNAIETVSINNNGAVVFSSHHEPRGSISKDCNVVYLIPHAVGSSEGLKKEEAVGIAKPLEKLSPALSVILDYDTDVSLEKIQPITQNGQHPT

[2] = Binding affinity for dopamine D4-like receptor labelled with [3H]YM-09151-2 in retina; assay type: tissue-based, Bos taurus

| SMILES | Ki [1] | Ki (D(1A) dopamine receptor) | Ki [2] |
| --- | --- | --- | --- |
| CCCN1CCC[C@@H](c2ccc(C)c(C)c2)C1 | 5000 nM | > 100000 nM | 23 nM |
| CCCN1CCC[C@H](c2ccc(C)c(C)c2)C1 | > 100000 nM | > 100000 nM | 4 nM |
| CCCN1CCCC(c2ccc(C)c(C)c2)C1 (centres undefined) | 11000 nM | > 100000 nM | 10 nM |
| CCCN1CCC[C@H](c2cccc(O)c2)C1 | 404 nM |  | 397 nM |
| NCCc1ccc(O)c(O)c1 [DOPAMINE] | 130 nM |  | 15 nM |
| Cc1cccc(C(=O)NCN2CCN(c3ccccc3C#N)CC2)c1 [PD-168,077] | 18300 nM |  | 25 nM |
| CCCN1CCC[C@@H](c2cccc(O)c2)C1 [PRECLAMOL] | 8 nM |  | 187 nM |
| CCCN1CCC[C@@H]2Cc3n[nH]cc3C[C@H]21 [QUINPIROLE] | 241 nM |  | 59 nM |
